Test results as given in US20120009203A1, “Depletion of cancer stem cells” (priority 2010, published 2012).
“Also recorded” adds a separate entry of the source.

How the values were obtained:
pancreatic cells (BXPC3) = assay: Cell death of BXPC3 pancreatic cells; format: cell-based; settings: FIG. 26
OSCCs = assay: Cell death of OSCCs by propidium iodide staining; format: cell-based, human; settings: for levels of cell death (propidium iodide staining): overnight; for Dose dependent effect on oral tumors: UC-1 (OSCCs, differentiated oral tumor), FIG. 25
Description: (§1) OSCSCs and OSCCs were treated with HEMA (1:600) and the chemotherapeutic drug cisplatinum at 10 μg/ml, 40 μg/ml and 80 μg/ml. After an overnight incubation the levels of cell death in each tumor type was determined using propidium iodide staining.
(§2) OSCSCs and OSCCs were irradiated at 2 Gy, 10 Gy and 20 Gy and left untreated or treated with chemotherapeutic drug cisplatinum at 40 μg/ml. After an overnight incubation the levels of cell death in each tumor type was determined using propidium iodide staining.
(§3) OSCSC and OSCCs were treated with Paclitaxel at 10 μg/ml, 40 μg/ml and 80 μg/ml in the presence and absence of NAC (20 mM) and after an overnight incubation the levels of cell death were determined using propidium iodide staining.

OSCSCs [1] = assay: Cell death of OSCSCs by propidium iodide staining; format: cell-based, human; settings: overnight
Description: as §1, §2, §3

undifferentiated MSCs = assay: Cell death of MSCs versus osteoblasts, flow cytometry of PI stained cells; format: cell-based, human; settings: undifferentiated MSCs compared to differentiated osteoblasts; different concentrations of HEMA; overnight; FIG. 8F
Description: FIG. 8. […] After 2 days of co-cultures, Alkaline Phosphatase staining was performed. […] The ALP stain densities for each well were determined using photoshop software (B). […] After 2 days of co-cultures Alkaline Phosphatase staining was performed. […] The ALP stain densities for each well were determined using photoshop software (D). Stem cells and Osteoblasts were cultured with and without untreated PBMCs as described above and after two days of incubation the supernatants were removed and subjected to specific ELISA for VEGF (E). Undifferentiated MSCs and those differentiated to osteoblasts were cultured in the absence and presence of different concentrations of HEMA as indicated in the figure and the levels of cell death were determined by flow cytometric analysis of PI stained MSCs and osteoblasts after an overnight incubation (F). […] After an overnight incubation, the cells were washed and B7H1 surface expression was determined on MSC gated populations. Isotype control antibodies were used as controls (I). MSCs were left untreated or treated with IFN-γ (500 u/ml). After an overnight incubation, MSCs were washed and the B7H1 surface expression was determined on MSC.
Moreover, when MSCs were cultured with NK cells alone or NK cells with monocytes significant induction of B7H1 surface expression could be observed in surviving MSCs (FIG. 8I). […]

OSCSCs [2] = assay: Cell death of OSCSCs by propidium iodide staining; format: cell-based, human; settings: UC2 (OSCSCs, stem-like oral tumors); FIG. 25
lung (A549) tumors = assay: Cell death of A549 lung tumors; format: cell-based; settings: A549 pre-treated 5 days with supernatants from anergized NK cells (IL-2+anti-CD16 mAb), then Cisplatin overnight; FIG. 32
Description: NK treatments were carried out for 24 hours before the supernatants were removed and used to treat A549 lung tumors for 5 days. All the NK supernatant treated lung tumors were then washed and treated with different concentrations of Cisplatin as shown in the figure and incubated overnight before they were stained with propidium iodide to determine cell death in each sample.

[3] = OSCCs, HEMA 1:600, cisplatinum 10, 40 and 80 μg/ml, FIG. 15
[4] = OSCSCs, HEMA 1:600, cisplatinum 10, 40 and 80 μg/ml, FIG. 15

## CC(=O)N[C@@H](CS)C(=O)O [NAC, N-acetylcysteine]
Pancreatic cells (BXPC3); in the presence of cisplatin
  effect of NAC on cisplatin mediated killing of pancreatic cells: inhibits cisplatin mediated killing

## C=C(C)C(=O)OCCO [HEMA]
OSCCs; [3]
  levels of cell death (propidium iodide staining): lysed OSCCs significantly
OSCSCs [1]; [4]
  levels of cell death (propidium iodide staining): significantly more resistant; also recorded: Resistance
Undifferentiated MSCs
  levels of cell death (PI staining, flow cytometry): induced significant cell death

## CC(=O)O[C@H]1C(=O)[C@@]2(C)[C@H]([C@H](OC(=O)c3ccccc3)[C@]3(O)C[C@H](OC(=O)[C@H](O)[C@@H](NC(=O)c4ccccc4)c4ccccc4)C(C)=C1C3(C)C)[C@]1(OC(C)=O)CO[C@@H]1C[C@@H]2O [Paclitaxel, paclitaxel]
OSCCs; OSCCs, Paclitaxel 10, 40 and 80 μg/ml with and without NAC 20 mM, FIG. 17
  levels of cell death (propidium iodide staining): lysed both cell types
OSCCs
  Dose dependent effect on oral tumors: affects both cell types similarly
OSCSCs [1]; OSCSCs (cancer stem cells), Paclitaxel 10, 40 and 80 μg/ml with and without NAC 20 mM, FIG. 17
  levels of cell death (propidium iodide staining): Lysis
OSCSCs [1]; OSCSCs (cancer stem cells), Paclitaxel 10, 40 and 80 μg/ml with and without NAC 20 mM, FIG. 17, listed as paclitaxel
  levels of cell death (propidium iodide staining): lysed both cell types
OSCSCs [2]
  Dose dependent effect on oral tumors: affects both cell types similarly

## N.N.[Cl][Pt][Cl] [Cisplatin, cisplatin]
OSCCs; OSCCs irradiated at 2, 10, 20 Gy, cisplatinum 40 μg/ml, FIG. 16
  levels of cell death (propidium iodide staining): lysed OSCCs significantly
OSCCs; [3]
  levels of cell death (propidium iodide staining): lysed OSCCs significantly
OSCCs
  Dose dependent effect on oral tumors: increased effect on differentiated OSCCs
OSCSCs [1]; OSCSCs irradiated at 2, 10, 20 Gy, cisplatinum 40 μg/ml, FIG. 16
  levels of cell death (propidium iodide staining): significantly more resistant; also recorded: Resistance
OSCSCs [1]; [4]
  levels of cell death (propidium iodide staining): significantly more resistant; also recorded: Resistance
Pancreatic cells (BXPC3)
  cisplatin mediated killing of pancreatic cells: Dose dependent increase
Lung (A549) tumors
  cell death by Cisplatin (propidium iodide): highest induction of cell death by Cisplatin
OSCSCs [2]
  Dose dependent effect on oral tumors: does not kill OSCSCs
